Measured values reported in US10227329B2, “Compounds useful for treating disorders related to RET” (BLUEPRINT MEDICINES CORPORATION, priority 2016, dated 2019).

Legend:
wild type RET = wild type RET (Homo sapiens (Human), UniProt P07949); assay: RET Wild Type Assay at KM (Caliper electrophoretic mobility shift); type: biochemical; conditions: 25 μM ATP (KM)
RET V804L = RET V804L (Homo sapiens (Human), UniProt P07949, V804L); assay: RET V804L Gatekeeper Mutant Assay at KM (Caliper electrophoretic mobility shift); type: biochemical; conditions: 10 μM ATP (KM), read-out: V480L Mutant
RET V804L, sequence (P07949 29-1114 V804L): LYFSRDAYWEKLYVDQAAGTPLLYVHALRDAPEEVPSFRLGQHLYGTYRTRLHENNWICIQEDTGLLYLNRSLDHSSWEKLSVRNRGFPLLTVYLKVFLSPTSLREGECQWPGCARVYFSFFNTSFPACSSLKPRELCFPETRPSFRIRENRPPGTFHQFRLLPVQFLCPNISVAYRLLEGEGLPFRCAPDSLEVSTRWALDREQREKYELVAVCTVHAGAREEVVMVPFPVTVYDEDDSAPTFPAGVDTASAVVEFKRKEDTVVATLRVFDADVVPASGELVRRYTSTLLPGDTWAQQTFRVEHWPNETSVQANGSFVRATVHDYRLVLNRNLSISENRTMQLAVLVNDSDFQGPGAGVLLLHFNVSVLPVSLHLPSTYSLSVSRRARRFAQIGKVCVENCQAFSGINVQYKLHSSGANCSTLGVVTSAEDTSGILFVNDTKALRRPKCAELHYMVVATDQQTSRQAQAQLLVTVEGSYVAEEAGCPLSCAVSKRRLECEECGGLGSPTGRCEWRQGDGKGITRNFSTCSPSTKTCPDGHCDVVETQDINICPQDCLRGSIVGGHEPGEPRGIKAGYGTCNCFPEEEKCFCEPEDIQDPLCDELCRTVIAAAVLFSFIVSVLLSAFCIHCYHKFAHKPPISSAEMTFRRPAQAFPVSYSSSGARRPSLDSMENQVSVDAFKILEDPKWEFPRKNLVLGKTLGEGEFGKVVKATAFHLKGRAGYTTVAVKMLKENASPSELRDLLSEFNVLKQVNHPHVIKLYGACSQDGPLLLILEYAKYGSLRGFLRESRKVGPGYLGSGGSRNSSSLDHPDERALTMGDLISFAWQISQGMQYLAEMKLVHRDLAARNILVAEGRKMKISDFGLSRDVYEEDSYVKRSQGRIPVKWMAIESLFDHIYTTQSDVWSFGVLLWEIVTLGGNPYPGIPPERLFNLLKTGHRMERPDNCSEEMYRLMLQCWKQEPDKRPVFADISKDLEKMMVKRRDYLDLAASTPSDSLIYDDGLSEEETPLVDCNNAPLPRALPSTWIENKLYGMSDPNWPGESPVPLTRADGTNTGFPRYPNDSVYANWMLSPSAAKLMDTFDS

wild type RET, sequence (P07949 29-1114): as the sequence (P07949 29-1114 V804L) above, with L776V counted along it

| Structure (SMILES) | IC50 (wild type RET) [nM] | IC50 (RET V804L) [nM] |
| --- | --- | --- |
| Cc1cc(Nc2cc(C)[nH]n2)nc(N2CCC(C(=O)NCc3ccccc3)CC2)n1 [Compound 100] | > 100 | 10 to 100 |
| Cc1cc(Nc2cc(C)[nH]n2)nc(N2CCC(C)(C(=O)NCc3ccccc3)CC2)n1 [Compound 101] | 10 to 100 | 10 to 100 |
| Cc1cc(Nc2cc(C)[nH]n2)nc(N2CCC(O)(C(=O)NCc3ccccc3)CC2)c1 [Compound 102] | > 100 | 10 to 100 |
| Cc1cc(Nc2cc(C)[nH]n2)nc(N2CCC(O)(C(=O)NCc3ccccc3)CC2)n1 [Compound 103] | > 100 | > 100 |
| COC1(C(=O)NCc2ccccc2)CCN(c2nc(C)cc(Nc3cc(C)[nH]n3)n2)CC1 [Compound 104] | > 100 | 10 to 100 |
| COc1ccc(CNC(=O)C2(O)CCN(c3cc(C)cc(Nc4cc(C)[nH]n4)n3)CC2)cc1 [Compound 105] | 10 to 100 | 10 to 100 |
| COc1ccc(CNC(=O)C2(O)CCN(c3nc(C)cc(Nc4cc(C)[nH]n4)n3)CC2)cc1 [Compound 106] | > 100 | 10 to 100 |
| Cc1cc(Nc2cc(C)[nH]n2)nc(N2CC(C)(C(=O)NCc3ccc(-n4cccn4)nc3)C2)c1 [Compound 107, N-((6-(1H-pyrazol-1-yl)pyridin-3-yl)methyl)-3-methyl-1-(4-methyl-6-((5-methyl-1H-pyrazol-3-yl)amino)pyridin-2-yl)azetidine-3-carboxamide] | < 10 | < 10 |
| Cc1cc(Nc2cc(C)[nH]n2)nc(N2CC(O)(C(=O)NCc3ccc(-n4cccn4)nc3)C2)c1 [Compound 110] | 10 to 100 | < 10 |
| Cc1cc(Nc2cc(C)[nH]n2)nc(N2CC(F)(C(=O)NCc3ccc(-n4cccn4)nc3)C2)c1 [Compound 111] | < 10 | < 10 |
| Cc1cc(Nc2cc(C)[nH]n2)nc(N2CC(F)(C(=O)NCc3ccc(-n4cccn4)nc3)C2)n1 [Compound 112] | < 10 | < 10 |
| CCOc1ccc(CNC(=O)C2(O)CCN(c3cc(C)cc(Nc4cc(C)[nH]n4)n3)CC2)cc1 [Compound 113] | 10 to 100 | < 10 |
| COc1ccc([C@H](C)NC(=O)C2(O)CCN(c3cc(C)cc(Nc4cc(C)[nH]n4)n3)CC2)cc1 [Compound 114] | 10 to 100 | 10 to 100 |
| CCOc1ccc(CNC(=O)C2(O)CCN(c3nc(C)cc(Nc4cc(C)[nH]n4)n3)CC2)cc1 [Compound 115] | 10 to 100 | 10 to 100 |
| COc1ccc([C@H](C)NC(=O)C2(O)CCN(c3nc(C)cc(Nc4cc(C)[nH]n4)n3)CC2)cc1 [Compound 116] | > 100 | 10 to 100 |
| Cc1cc(Nc2cc(C)[nH]n2)nc(N2CC(C)(C(=O)N[C@@H](C)c3ccc(-n4cccn4)nc3)C2)c1 [Compound 117] | < 10 | < 10 |
| Cc1cc(Nc2cc(C)[nH]n2)nc(N2CCC(C(=O)NCc3ccc(-n4cccn4)nc3)CC2)n1 [Compound 118] | < 10 | < 10 |
| Cc1cc(Nc2cc(C)[nH]n2)nc(N2CC(C(=O)N[C@@H](C)c3ccc(-n4cc(F)cn4)nc3)C2)c1 [Compound 119] | < 10 | < 10 |
| Cc1cc(Nc2cc(C)[nH]n2)nc(N2CC(C)(C(=O)NCc3ccc(-n4cc(F)cn4)nc3)C2)c1 [Compound 120] | < 10 | < 10 |

| Structure (SMILES) | IC50 (wild type RET) [nM] | IC50 (RET V804L) [nM] |
| --- | --- | --- |
| Cc1cc(Nc2cc(C)[nH]n2)nc(N2CC(C(=O)N[C@@H](C)c3ccc(-n4cc(F)cn4)nc3)C2)n1 [Compound 121] | < 10 | < 10 |
| Cc1cc(Nc2cc(C)[nH]n2)nc(N2CC(F)(C(=O)N[C@@H](C)c3ccc(-n4cccn4)nc3)C2)n1 [Compound 122] | < 10 | < 10 |
| COc1ccc([C@H](C)NC(=O)C2(OC)CCN(c3nc(C)cc(Nc4cc(C)[nH]n4)n3)CC2)cc1 [Compound 123] | 10 to 100 | 10 to 100 |
| Cc1cc(Nc2cc(C)[nH]n2)nc(N2CC(F)(C(=O)NCc3ccc(-n4cc(F)cn4)nc3)C2)n1 [Compound 124] | < 10 | < 10 |
| COC1(C(=O)NCc2ccc(N3CC(F)C3)nc2)CN(c2nc(C)cc(Nc3cc(C)[nH]n3)n2)C1 [Compound 125] | > 100 | > 100 |
| Cc1cc(Nc2cc(C)[nH]n2)nc(N2CC(C#N)(C(=O)N[C@@H](C)c3ccc(-n4cccn4)nc3)C2)n1 [Compound 126] | < 10 | < 10 |
| Cc1cc(Nc2cc(C)[nH]n2)nc(N2CCC(C)(C(=O)NCc3ccc(-n4cccn4)nc3)CC2)c1 [Compound 127] | < 10 | < 10 |
| Cc1cc(Nc2cc(C)c(C#N)c(N3CC(F)(C(=O)NCc4ccc(-n5cccn5)nc4)C3)n2)n[nH]1 [Compound 128] | < 10 | < 10 |
| Cc1cc(Nc2cc(C)[nH]n2)nc(N2CCC(C)(C(=O)NCc3ccc(-n4cccn4)nc3)CC2)n1 [Compound 129] | < 10 | < 10 |
| CCC1(C(=O)N[C@@H](C)c2ccc(-n3cccn3)nc2)CN(c2nc(C)cc(Nc3cc(C)[nH]n3)n2)C1 [Compound 130] | < 10 | < 10 |
| Cc1cc(Nc2cc(C)[nH]n2)nc(N2CCC(O)(C(=O)NCc3ccc(-n4cccn4)nc3)CC2)c1 [Compound 131] | < 10 | < 10 |
| Cc1cc(Nc2cc(C)[nH]n2)nc(N2CC[C@H](C(=O)NCc3ccc(-n4cccn4)nc3)[C@@H](O)C2)c1 [Compound 132] | < 10 | < 10 |
| Cc1cc(Nc2cc(C)[nH]n2)nc(N2CC[C@@H](C(=O)NCc3ccc(-n4cccn4)nc3)[C@H](O)C2)c1 [Compound 133] | < 10 | < 10 |
| Cc1cc(Nc2cc(C)[nH]n2)nc(N2CC[C@@H](C(=O)NCc3ccc(-n4cccn4)nc3)[C@@H](O)C2)c1 [Compound 134] | < 10 | < 10 |
| Cc1cc(Nc2cc(C)[nH]n2)nc(N2CC[C@H](C(=O)NCc3ccc(-n4cccn4)nc3)[C@H](O)C2)c1 [Compound 135] | 10 to 100 | 10 to 100 |
| Cc1cc(Nc2cc(C)[nH]n2)nc(N2CCC(O)(C(=O)NCc3ccc(-n4cccn4)nc3)CC2)n1 [Compound 136, N-((6-(1H-pyrazol-1-yl)pyridin-3-yl)methyl)-4-hydroxy-1-(4-methyl-6-(3-methyl-1H-pyrazol-5-ylamino)pyrimidin-2-yl)piperidine-4-carboxamide] | < 10 | < 10 |
| COC1(C(=O)NCc2ccc(-n3ccc(C)n3)nc2)CN(c2nc(C)cc(Nc3cc(C)[nH]n3)n2)C1 [Compound 137] | < 10 | < 10 |
| COC1(C(=O)NCc2ccc(-n3cc(C)cn3)nc2)CN(c2nc(C)cc(Nc3cc(C)[nH]n3)n2)C1 [Compound 138] | 10 to 100 | < 10 |
| Cc1cc(Nc2cc(C)[nH]n2)nc(N2CC(C)(C(=O)N[C@@H](C)c3ccc(-n4cc(F)cn4)nc3)C2)c1 [Compound 139] | < 10 | < 10 |

| Structure (SMILES) | IC50 (wild type RET) [nM] | IC50 (RET V804L) [nM] |
| --- | --- | --- |
| Cc1cc(Nc2cc(C)[nH]n2)nc(N2CC(C(=O)N(C)[C@@H](C)c3ccc(-n4cc(F)cn4)nc3)C2)c1 [Compound 140] | < 10 | < 10 |
| Cc1cc(Nc2cc(C)[nH]n2)nc(N2CCC(F)(C(=O)NCc3ccc(-n4cccn4)nc3)CC2)n1 [Compound 141] | < 10 | < 10 |
| Cc1cc(Nc2cc(C)[nH]n2)nc(N2CC(C(=O)N(C)[C@@H](C)c3ccc(-n4cc(F)cn4)nc3)C2)n1 [Compound 142] | < 10 | < 10 |
| Cc1cc(Nc2cc(C)[nH]n2)nc(N2C[C@@H](C(=O)N[C@@H](C)c3ccc(-n4cc(F)cn4)nc3)[C@@H]2C)n1 [Compound 143] | < 10 | < 10 |
| Cc1cc(Nc2cc(C)[nH]n2)nc(N2C[C@H](C(=O)N[C@@H](C)c3ccc(-n4cc(F)cn4)nc3)[C@H]2C)n1 [Compound 144] | < 10 | < 10 |
| Cc1cc(Nc2cc(C)[nH]n2)nc(N2CC(O)(C(=O)N[C@@H](C)c3ccc(-n4cc(F)cn4)nc3)C2)c1 [Compound 145] | < 10 | < 10 |
| COC1(C(=O)NCc2ccc(-n3cccn3)nc2)CN(c2nc(Nc3cc(C)[nH]n3)cc(C)c2F)C1 [Compound 146] | < 10 | < 10 |
| COC1(C(=O)N[C@@H]2CCN(c3ccccn3)C2)CCN(c2nc(C)cc(Nc3cc(C)[nH]n3)n2)CC1 [Compound 147] | 10 to 100 | 10 to 100 |
| COC1(C(=O)NCc2ccc(-n3cc(F)cn3)nc2)CN(c2nc(C)cc(Nc3cc(C)[nH]n3)n2)C1 [Compound 148] | < 10 | < 10 |
| COC1(C(=O)N[C@@H](C)c2ccc(-n3cc(F)cn3)nc2)CN(c2nccc(Nc3cc(C)[nH]n3)n2)C1 [Compound 149] | < 10 | < 10 |
| COC1(C(=O)NCc2ccc(-n3cc(F)cn3)nn2)CN(c2nc(C)cc(Nc3cc(C)[nH]n3)n2)C1 [Compound 150] | 10 to 100 | 10 to 100 |
| Cc1cc(Nc2cc(C)[nH]n2)nc(N2CC(F)(C(=O)N[C@@H](C)c3ccc(-n4cc(F)cn4)nc3)C2)c1 [Compound 151] | < 10 | < 10 |
| Cc1cc(Nc2cc(C)c(F)c(N3CC(C(=O)N[C@@H](C)c4ccc(-n5cc(F)cn5)nc4)C3)n2)n[nH]1 [Compound 152] | < 10 | < 10 |
| Cc1cc(Nc2cc(C)[nH]n2)nc(N2CC(F)(C(=O)N[C@@H](C)c3ccc(-n4cc(F)cn4)nc3)C2)n1 [Compound 153] | < 10 | < 10 |
| COC1(C(=O)NCc2ccc(N3CC[C@H](F)C3)nc2)CN(c2nc(C)cc(Nc3cc(C)[nH]n3)n2)C1 [Compound 154] | > 100 | > 100 |
| COC1(C(=O)NCc2ccc(N3CC[C@@H](F)C3)nc2)CN(c2nc(C)cc(Nc3cc(C)[nH]n3)n2)C1 [Compound 155] | > 100 | 10 to 100 |
| COC1(C(=O)NCc2ccc(-n3cccn3)nc2)CN(c2nc(Nc3cc(C)[nH]n3)cc(C)c2C#N)C1 [Compound 156] | < 10 | < 10 |
| Cc1cc(Nc2cc(C)c(C#N)c(N3CC(F)(C(=O)N[C@@H](C)c4ccc(-n5cccn5)nc4)C3)n2)n[nH]1 [Compound 157] | < 10 | < 10 |
